Assay results as given in patent US20100172875A1, “OIL-IN-WATER EMULSION AND ITS USE FOR THE DELAYED RELEASE OF ACTIVE ELEMENTS” (NESTEC S.A., priority 2007, published 2010).
Read-outs that look alike come from different tables or passages of the source.

What was measured:
[1] = octanol/water partition coefficient (logP) of the active elements; assay type: physicochemical
From the text: The logarithm of the octanol/water partition coefficient (logP) is used extensively to describe the lipophilic or hydrophobic properties of an active element. The logP property value is taken from the ratio of the respective concentrations of the active element in the n-octanol and water partitions of a two-phase system at equilibrium. Among other methods, the classical and most reliable method of logP determination is the shake-flask method, which consists of dissolving some of the active element in question in a volume of n-octanol and water, then measuring the concentration of the solute in each solvent (Organization for Economic Cooperation and Development, Guidelines for The Testing of Chemicals, OECD 107, Partition Coefficient (n-octanol/water)-Shake Flask Method, Adopted 27 Jul. 1995-, OECD, Paris, France).
Table 1 lists active elements used in the study, providing chemical name (first column), the Chemical Abstract Service number (CAS#, second column), supplier and supplier product code (third and fourth column), the logarithm of the octanol/water partition coefficient (logP) and the concentration used in final formulations in parts per million of volume (ppmV). These nine active elements are volatile aroma compounds.

[2] = active element release into the headspace of emulsions under in vitro dynamic conditions, monitored by PTR-MS; assay type: physicochemical; conditions: for significance of Tmax difference: emulsion of this invention 5 wt % (MG:MCT 1:20) vs simple reference emulsion 5 wt % MCT, Fisher LSD, α<0.05
From the text: The Tmax of a given active element released from a given emulsion is a parameter determined from the curve representing the variation over time of the given active element concentration in the water phase or in the headspace of the emulsion or of product containing the emulsion under dynamic condition (denoted as release curve) as time at which the measured concentration of the given active element reaches its maximum (FIG. 1). The analytical methods that can be applied for measurement of release curve and corresponding Tmax in dynamic condition include, but are not restricted to, measuring in headspace under a continuous purging flow of nitrogen and analyzing the active element in the purged headspace gas through its specific mass-to-charge using Proton Transfer Reaction-Mass Spectrometry (PTR-MS) (Pollien, P., Lindinger, C., Yeretzian, C., and Blank, I., “Proton Transfer Reaction Mass Spectrometry, a Tool for On-Line Monitoring of Acrylamide Formation in the Headspace of Maillard Reaction Systems and Processed Food,” Analytical Chemistry, Vol. 75, No. 20, 2003, pp. 5488-5494).
A double-jacketted glass cell was held at 36° C. with a circulating water bath. This cell was put in the oven which was held at 60° C. in order to avoid cold points and water condensation. The headspace cell was continuously purged at 200 sccm (standard cubic centimeters per minute) with pure nitrogen. Prior to introduction into the PTR-MS, the headspace was diluted with 1960 sccm of nitrogen to avoid water saturation of the instrument.
When all the set-up had been thermo-stabilized, 100 ml of sample, after being stabilized at 36° C. in a water bath, was poured inside the cell, which was quickly reconnected and put under agitation at 135 rpm. The release of active elements was monitored on-line during 10 minutes for each sample.
Nine specific masses were selected based on the scan data, i.e., m/z 45 for acetaldehyde, m/z 83 for cis-3-Hexen-1-ol, m/z 87 for diacetyl, m/z 99 for 2E-hexenal, m/z 107 for benzaldehyde, m/z 111 for octanal, m/z 131 for ethyl isovalerate, m/z 137 linalool, m/z 167 for 3-methoxy-2-isobutylpyrazine.
The PTR-MS signals (ion count) enabled us to calculate the active element concentration in the headspace of the emulsion so that to build the release curve for the active element. Cmax of a given active element released from a given emulsion was determined from the release curve as the maximum concentration of the active element released in the headspace of the emulsion, expressed in ppmV (parts per million in volume).
Tmax of a given active element released from a given emulsion was determined from the release curve as the time to reach maximum concentration of the active element released in the headspace of the emulsion, expressed in seconds. The nine active elements are listed in X axis and sorted along their logP, from the lowest logP value (hydrophilic compounds) to the highest logP (lipophilic compounds). Black, grey and hatched bars represent respectively Tmax the active elements released in the headspace of an oil-in-water emulsion containing with 10 wt % Medium Chain Triglycerides (MCT) (herein labelled as simple emulsion with 10 wt % MCT), of an oil-in-water emulsion containing 5 wt % MCT (herein labelled as simple reference emulsion with 5 wt % MCT), and an oil-in-water emulsion containing 5 wt % of an 1:20 mixture of a unsaturated monoglyceride (DIMODAN MO90, Danisco, Denmark) and MCT (herein Emulsion of the present invention with 5 wt % (MG:MCT 1:20)). All Tmax values were obtained on 6 replicated measurements. Tmax of 2E-Hexenal for the simple emulsion with 10 wt % MCT is not determined because its concentration in the headspace was continuously and gradually increasing over the 10 minutes of measurement. […]

[3] = n-octanol/water, logarithm of the octanol/water partition coefficient, read-out: logP

SMILES	logP ([1]; logarithm of the octanol/water partition coefficient)	significance of Tmax difference [2]	logP [1, 3]	logP [1]	Cmax released in headspace, comparison ([2]; emulsion of the present invention 5 wt % (MG:MCT 1:20) vs simple emulsion 10 wt % MCT)
CCC/C=C/C=O [Example 2E-hexenal, 2E-hexenal]	1.576	–	–	–	–
O=Cc1ccccc1 [Benzaldehyde]	–	significant increase	–	–	–
CC=O [Acetaldehyde]	–	non-significant difference	-0.156	–	–
COc1nccnc1CC(C)C [3-methoxy-2-isobutylpyrazine]	–	significant increase	2.62	–	–
CC(=O)C(C)=O [Diacetyl]	–	non-significant difference	–	−1.332	–
CCOC(=O)CC(C)C [Ethyl isovalerate]	–	significant increase	2.12	–	–
CC/C=C\CCO [cis-3-Hexen-1-ol]	–	significant increase	[…]	–	–
CCCCCCCC=O [Octanal]	–	significant increase	3.03	–	–
C=CC(C)(O)CCC=C(C)C (centres unmarked) [Linalool]	–	significant increase	3.28	–	significantly higher
